# Legend:
# [1] = target: T1, human CD73 recombinant protein (Homo sapiens, UniProt P21589); assay: Enzyme assay, CD73 (Malachite green kit); type: biochemical; details: AMP added, incubation 30 minutes
# T1 construct: made in house
# T1 sequence (P21589 27-549): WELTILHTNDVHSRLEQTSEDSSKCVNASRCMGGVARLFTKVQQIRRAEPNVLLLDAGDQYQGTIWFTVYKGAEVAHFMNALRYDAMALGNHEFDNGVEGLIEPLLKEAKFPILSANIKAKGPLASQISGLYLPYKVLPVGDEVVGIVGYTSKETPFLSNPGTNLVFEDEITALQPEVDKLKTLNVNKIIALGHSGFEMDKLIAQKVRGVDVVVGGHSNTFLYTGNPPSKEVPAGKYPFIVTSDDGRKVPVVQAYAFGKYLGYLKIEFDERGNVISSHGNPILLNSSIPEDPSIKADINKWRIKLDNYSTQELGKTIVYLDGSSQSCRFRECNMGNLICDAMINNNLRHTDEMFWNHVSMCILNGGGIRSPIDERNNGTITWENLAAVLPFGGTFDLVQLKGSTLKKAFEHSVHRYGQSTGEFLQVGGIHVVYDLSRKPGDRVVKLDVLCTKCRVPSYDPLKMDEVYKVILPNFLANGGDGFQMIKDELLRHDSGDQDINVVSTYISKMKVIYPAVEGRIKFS
# Method: (§1) Referring to a method described in a reference document [Front Pharmacol. 2018 Mar. 1; 9:153], an enzyme assay was performed. Each of human CD73 and CD39 recombinant proteins was produced and then purified and isolated, and used in an enzyme assay. A buffer was basically 25 mM Tris, 5 mM MgCl2, pH 7.5 as an assay buffer, and for assay, human CD73 and CD39 recombinant protein were diluted at an appropriate concentration, respectively, in the assay buffer, adenosine monophosphate (AMP) (Sigma, Catalog #A1752) at an appropriate concentration was added, and then incubation was performed for 30 minutes. At the time, the azolopyrimidine heterocyclic compounds of the present invention were treated for each concentration and incubated together, thereby measuring a degree of inhibiting activity of CD73 or CD39.
# [2] = target: T2, human CD39 recombinant protein (Homo sapiens, UniProt P49961); assay: Enzyme assay, CD39 (Malachite green kit); type: biochemical; details: AMP added, incubation 30 minutes
# T2 construct: made in house
# T2 sequence (P49961 1-510): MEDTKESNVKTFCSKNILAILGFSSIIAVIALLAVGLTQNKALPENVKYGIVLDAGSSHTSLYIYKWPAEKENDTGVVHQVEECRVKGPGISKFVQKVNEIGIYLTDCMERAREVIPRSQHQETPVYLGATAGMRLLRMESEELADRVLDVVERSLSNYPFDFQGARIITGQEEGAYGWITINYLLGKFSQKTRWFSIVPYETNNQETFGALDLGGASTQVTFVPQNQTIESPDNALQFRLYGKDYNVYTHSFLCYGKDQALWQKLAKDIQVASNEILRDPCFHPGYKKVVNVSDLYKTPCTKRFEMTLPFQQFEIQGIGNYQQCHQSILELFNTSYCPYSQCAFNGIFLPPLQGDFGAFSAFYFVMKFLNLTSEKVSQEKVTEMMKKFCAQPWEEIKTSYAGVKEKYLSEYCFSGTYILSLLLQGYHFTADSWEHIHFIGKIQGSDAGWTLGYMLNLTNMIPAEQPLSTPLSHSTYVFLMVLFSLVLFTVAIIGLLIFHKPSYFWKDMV
# Method: as §1
IC50 [1],IC50 [2],SMILES
5.1 to 15 µM,,"CN(Cc1cccc(F)c1)c1ncnc2c1ncn2[C@@H]1O[C@H](COC(=O)Nc2ccccc2)[C@@H](O)[C@H]1O [Compound 6, ((2R,3S,4R,5R)-5-(6-((3-fluorobenzyl)(methyl)amino)-9H-purin-9-yl)-3,4-dihydroxytetrahydrofuran-2-yl)methyl phenylcarbamate]"
1.1 to 5 µM,≥ 30 µM,"COc1ccc(C(OC[C@H]2O[C@@H](n3cnc4c(Cl)ncnc43)[C@H](O)[C@@H]2O)(c2ccccc2)c2ccc(OC)cc2)cc1 [Compound 23, (2R,3S,4R,5R)-2-((bis(4-methoxyphenyl) (phenyl)methoxy)methyl)-5-(6-chloro-9H-purin-9-yl)tetrahydrofuran-3,4-diol]"
< 1 µM,5.1 to 15 µM,"CN(Cc1cccc(F)c1)c1ncnc2c1ncn2[C@@H]1O[C@H](COCc2cc(C(F)(F)F)cc(C(F)(F)F)c2)[C@@H](O)[C@H]1O [Compound 14, (2R,3S,4R,5R)-2-(((3,5-bis(trifluoromethyl)benzyl)oxy)methyl)-5-(6-((3-fluorobenzyl)(methyl)amino)-9H-purin-9-yl)tetrahydrofuran-3,4-diol]"
< 1 µM,1.1 to 5 µM,"CN(Cc1cccc(F)c1)c1ncnc2c1ncn2[C@@H]1O[C@H](COC(c2ccccc2)(c2ccccc2)c2ccccc2)[C@@H](O)[C@H]1O [Compound 24, (2R,3R,4S,5R)-2-(6-((3-fluorobenzyl)(methyl)amino)-9H-purin-9-yl)-5-((trityloxy)methyl)tetrahydrofuran-3,4-diol]"
< 1 µM,< 1 µM,"COc1ccc(C(OC[C@H]2O[C@@H](n3cnc4c(N(C)Cc5cccc(F)c5)ncnc43)[C@H](O)[C@@H]2O)(c2ccccc2)c2ccc(OC)cc2)cc1 [Compound 25, (2R,3S,4R,5R)-2-((bis(4-methoxyphenyl) (phenyl)methoxy)methyl)-5-(6-((3-fluorobenzyl)(methyl)amino)-9H-purin-9-yl)tetrahydrofuran-3,4-diol]"
1.1 to 5 µM,1.1 to 5 µM,"CN(Cc1cccc(F)c1)c1ncnc2c1ncn2[C@@H]1O[C@H](COCc2ccc3ccccc3c2Br)[C@@H](O)[C@H]1O [Compound 19, (2R,3S,4R,5R)-2-(((1-bromonaphthalen-2-yl)methoxy)methyl)-5-(6-((3-fluorobenzyl)(methyl)amino)-9H-purin-9-yl)tetrahydrofuran-3,4-diol]"
< 1 µM,1.1 to 5 µM,"CN(Cc1cccc(F)c1)c1ncnc2c1ncn2[C@@H]1O[C@H](COCc2ccc(-c3ccccc3)cc2)[C@@H](O)[C@H]1O [Compound 13, (2R,3S,4R,5R)-2-(([1,1′-biphenyl]-4-ylmethoxy)methyl)-5-(6-((3-fluorobenzyl)(methyl)amino)-9H-purin-9-yl)tetrahydrofuran-3,4-diol]"
< 1 µM,5.1 to 15 µM,"O[C@@H]1[C@H](O)[C@@H](COC(c2ccccc2)(c2ccccc2)c2ccccc2)O[C@H]1n1cnc2c(Cl)ncnc21 [Compound 22, (2R,3R,4S,5R)-2-(6-chloro-9H-purin-9-yl)-5-((trityloxy)methyl)tetrahydrofuran-3,4-diol]"
< 1 µM,1.1 to 5 µM,"CN(Cc1cccc(F)c1)c1ncnc2c1ncn2[C@@H]1O[C@H](CO[Si](c2ccccc2)(c2ccccc2)C(C)(C)C)[C@@H](O)[C@H]1O [Compound 8, (2R,3S,4R,5R)-2-(((tert-butyldiphenylsilyl)oxy)methyl)-5-(6-((3-fluorobenzyl)(methyl)amino)-9H-purin-9-yl)tetrahydrofuran-3,4-diol]"
1.1 to 5 µM,1.1 to 5 µM,"CN(Cc1cccc(F)c1)c1ncnc2c1ncn2[C@@H]1O[C@H](CO[Si](C)(C)C(C)(C)C)[C@@H](O)[C@H]1O [Compound 20, (2R,3S,4R,5R)-2-(((tert-butyldimethylsilyl)oxy)methyl)-5-(6-((3-fluorobenzyl)(methyl)amino)-9H-purin-9-yl)tetrahydrofuran-3,4-diol]"
≥ 30 µM,,"CN(Cc1cccc(F)c1)c1ncnc2c1ncn2[C@@H]1O[C@H](CO[Si](c2ccccc2)(c2ccccc2)C(C)(C)C)[C@H]2OC(C)(C)O[C@H]21 [Compound 1, 9-((3aR,4R,6R,6aR)-6-(((tert-butyldiphenylsilyl)oxy)methyl)-2,2-dimethyltetrahydrofuro[3,4-d][1,3]dioxol-4-yl)-N-(3-fluorobenzyl)-N-methyl-9H-purin-6-amine]"
5.1 to 15 µM,,"CN(Cc1cccc(F)c1)c1ncnc2c1ncn2[C@@H]1O[C@H](COC(=O)c2ccccc2)[C@@H](O)[C@H]1O [Compound 9, ((2R,3S,4R,5R)-5-(6-((3-fluorobenzyl)(methyl)amino)-9H-purin-9-yl)-3,4-dihydroxytetrahydrofuran-2-yl)methyl benzoate]"
1.1 to 5 µM,15.1 to 30 µM,"CN(Cc1cccc(F)c1)c1ncnc2c1ncn2[C@@H]1O[C@H](COCc2ccc3ccccc3c2)[C@@H](O)[C@H]1O [Compound 18, (2R,3R,4S,5R)-2-(6-((3-fluorobenzyl)(methyl)amino)-9H-purin-9-yl)-5-((naphthalen-2-ylmethoxy)methyl)tetrahydrofuran-3,4-diol]"
1.1 to 5 µM,1.1 to 5 µM,"CN(Cc1cccc(F)c1)c1ncnc2c1ncn2[C@@H]1O[C@H](COCc2ccc(S(F)(F)(F)(F)F)cc2)[C@@H](O)[C@H]1O [Compound 15, (2R,3R,4S,5R)-2-(6-((3-fluorobenzyl)(methyl)amino)-9H-purin-9-yl)-5-(((4-(pentafluorothio)benzyl)oxy)methyl)tetrahydrofuran-3,4-diol]"
< 1 µM,1.1 to 5 µM,"CN(Cc1cccc(F)c1)c1ncnc2c1ncn2[C@@H]1O[C@H](CO[Si](c2ccccc2)(c2ccccc2)c2ccccc2)[C@@H](O)[C@H]1O [Compound 21, (2R,3R,4S,5R)-2-(6-((3-fluorobenzyl)(methyl)amino)-9H-purin-9-yl)-5-(((triphenylsilyl)oxy)methyl)tetrahydrofuran-3,4-diol]"
15.1 to 30 µM,,"CN(Cc1cccc(F)c1)c1ncnc2c1ncn2[C@@H]1O[C@H](COC(=S)Nc2ccccc2)[C@H]2OC(C)(C)O[C@H]21 [Compound 4, O-(((3aR,4R,6R,6aR)-6-(6-((3-fluorobenzyl)(methyl)amino)-9H-purin-9-yl)-2,2-dimethyltetrahydrofuro[3,4-d][1,3]dioxol-4-yl)methyl) phenylcarbamothioate]"
15.1 to 30 µM,,"CN(Cc1cccc(F)c1)c1ncnc2c1ncn2[C@@H]1O[C@H](COC(=O)Nc2ccccc2)[C@H]2OC(C)(C)O[C@H]21 [Compound 3, ((3aR,4R,6R,6aR)-6-(6-((3-fluorobenzyl)(methyl)amino)-9H-purin-9-yl)-2,2-dimethyltetrahydrofuro[3,4-d][1,3]dioxol-4-yl)methyl phenylcarbamate]"
1.1 to 5 µM,5.1 to 15 µM,"CN(Cc1cccc(F)c1)c1ncnc2c1ncn2[C@@H]1O[C@H](COCc2ccc3ccccc3c2)[C@H]2OC(C)(C)O[C@H]21 [Compound 16, 9-((3aR,4R,6R,6aR)-2,2-dimethyl-6-((naphthalen-2-ylmethoxy)methyl)tetrahydrofuro[3,4-d][1,3]dioxol-4-yl)-N-(3-fluorobenzyl)-N-methyl-9H-purin-6-amine]"
1.1 to 5 µM,≥ 30 µM,"CN(Cc1cccc(F)c1)c1ncnc2c1ncn2[C@@H]1O[C@H](COC(=S)Nc2ccccc2)[C@@H](O)[C@H]1O [Compound 7, O-(((2R,3S,4R,5R)-5-(6-((3-fluorobenzyl)(methyl)amino)-9H-purin-9-yl)-3,4-dihydroxytetrahydrofuran-2-yl)methyl) phenylcarbamothioate]"
1.1 to 5 µM,1.1 to 5 µM,"CN(Cc1cccc(F)c1)c1ncnc2c1ncn2[C@@H]1O[C@H](COCc2ccc3ccccc3c2Br)[C@H]2OC(C)(C)O[C@H]21 [Compound 17, 9-((3aR,4R,6R,6aR)-6-(((1-bromonaphthalen-2-yl)methoxy)methyl)-2,2-dimethyltetrahydrofuro[3,4-d][1,3]dioxol-4-yl)-N-(3-fluorobenzyl)-N-methyl-9H-purin-6-amine]"

# — patent publication US20220160747A1, “PHARMACEUTICAL COMPOSITION COMPRISING NOVEL AZOLOPYRIMIDINE HETEROCYCLIC COMPOUND AS ACTIVE INGREDIENT” (KOREA RESEARCH INSTITUTE OF CHEMICAL TECHNOLOGY, priority 2019, published 2022)
